Assay [1] deals with individual fibroblasts (NIG-3T3). The assay can be described thus: Single-cell force response to a perturbing agent, measured with polymer NEMS force sensor. The format is cell-based. As to the method:
FIGS. 2a-2i illustrate NEMS-enabled single-cell force measurements with high temporal and force resolution. FIGS. 2a-2b provide optical images showing a microfluidics encapsulated force sensor, and FIG. 2c provides an electron micrograph thereof. […] The force data was acquired with a force resolution of 200 pN and a time resolution of 100 ms—25× and 300×, respectively, better than prior state of the art. FIGS. 2f-2h provide plots that show force signatures of two molecular-mechanical processes: small force oscillations, roughly 400 pN peak-to-peak, with a frequency that is monotonically dependent on the force being exerted by the lamellipodium shown in FIG. 2f, with FIG. 2g illustrating the linearity of frequency dependence.
NEMS force sensors can be used in phenotypic screening. […] Cells can then be exposed to one or more potential reagents, such as a pharmaceutical reagent, such as a drug, introduced in a carefully controlled manner using the integrated microfluidics, and the effects of the reagent(s) on the cells, such as the force exerted by the cells, is monitored. […]
The reagent can cause the cell to change in its physiology, such as conformation and/or structure, or change its force response to the reagent. […] The lengthening of the wire can then be detected. […]

Assay [2] deals with cells. The assay can be described thus: Surface chemistry Petri dish experiments: cell adherence and spreading on treated surface. In kind it is cell-based. To be noted: surface treated with this agent only; polymer surface with gold pads. As to the method:
FIGS. 3a-3d show results from surface chemistry Petri dish experiments. […] FIG. 3c-3d show results from complete surface chemistry process (SAM, Pluronics and fibronectin): cells are well spread on the gold and absent from the polymer A force sensor comprising a polymer surface with gold pads was used. The cells were to be attached to the pads and not to the polymer. At the beginning, both the pad and the polymer surfaces were hydrophobic, and water contact angle was about 80° on both. A self assembled monolayer was applied to the gold pads using thiol based chemistry. […] Monolayers were deposited from ethanol solutions […]. The monolayers left the gold surface hydrophilic, and water contact angle was about 25°. The polymer regions were coated with Pluronics […]). The surfaces were treated to Pluronics diluted in PBS (phosphate buffer solution), 0.02% to 1% by weight for 20-80 min. […] Pluronics left the surface hydrophilic. The gold regions were coated with Fibronectin. The surfaces were treated with fibronectin diluted in PBS, 5 ug/mL to 50 ug/mL for 20 min-4 hrs. […] FIGS. 3(c) and 3(d) show results from complete surface chemistry process (SAM, Pluronics and fibronectin), wherein cells were well spread on the gold and absent from the polymer. Thus, modifying surface chemistry allowed control of the cell adherence and/or spreading.

Consider `C=C1[C@@H](C)[C@H]2[C@H](Cc3ccccc3)NC(=O)[C@]23[C@H](OC(C)=O)/C=C/[C@@](C)(O)C(=O)[C@@H](C)C/C=C/[C@H]3[C@@H]1O` [cytochalasin D, Cytochalasin D], for which, in assay [1] (cell's cytoskeleton perturbed with cytochalasin D and allowed to recover in growth media), the “large, stable, quantized force steps” value is on record as approximately 1 nN. Moreover, in assay [1] (lamellipodium perturbed with cytochalasin D and recovering in growth media, frequency monotonically dependent on force exerted), the “small force oscillations, peak-to-peak” value was “roughly 400 pN”.

As for fibronectin, in assay [2], the “cell attachment and spreading on surface” value is recorded as “cells were spread everywhere”.

These data come from patent US8476005B2, “Microfluidic embedded polymer NEMS force sensors” (California Institute of Technology, priority 2008, dated 2013).
